Entries after “also recorded” stand apart in the source; their conditions may differ. Read-outs that look alike come from different tables or passages of the source.
What was measured:
[1] = Tb^3+ binding of pKID peptides by fluorescence titration (dissociation constant determination); settings: for Kd: 5 mM HEPES (pH 7.8), 100 mM NaCl, read-out: Kd of peptide-Tb^3+ complex
Description: Fluorescence spectra were collected on a Photon Technology International fluorescence spectrometer model QM-3/2003 with a CW source and a Hamamatsu R928PMT. All experiments were conducted with an excitation wavelength of 280 nm. 6 nm excitation and emission slit widths were used unless otherwise indicated. All spectra were acquired at room temperature, collecting data every 1 nm with a scan rate of 1 nm per second. At least 3 independent binding titrations were conducted for each peptide. All spectra are uncorrected and have not been normalized, and only representative (median), non-averaged spectra are shown, unless otherwise indicated. All fluorescence experiments were conducted using a 495 nm highpass filter (model 495FG03-25 AM-53074; Andover Corporation, Andover, N.H.) on the emission monochromator.
Peptide solutions were prepared by dilution of stock solutions into 5 mM HEPES buffer (pH 7.8) with 100 mM NaCl. Spectra were acquired in 10 mm quartz fluorescence cells (Sterna). Tb^3+ titrations were conducted by dilution of a Tb^3+ solution into a peptide solution as described above. Each individual emission spectrum represents an independently prepared solution of peptide and metal. The Tb^3+ emission band at 544 nm was used to evaluate metal binding.
To determine dissociation constants for Tb^3+-peptide complexes, titrations were conducted in solutions of 5 mM HEPES (pH 7.8) and 100 mM NaCl, with 10 nm emission and excitation slit widths. All fluorescence experiments were conducted using a 495 nm highpass filter (model 495FG03-25 AM-53074; Andover Corporation, Andover, N.H.) on the emission monochromator. All TbCl3 solutions were standardized by titration with a standard solution of EDTA (1 mM) in the presence of xylenol orange indicator (10 μM) and sodium acetate buffer (pH 6.0, 10 mM). 500 μL of the 1 mM Tb^3+ stock solution was diluted to 1 mL to make a 0.5 mM solution and EDTA (1 mM) was added (approximately 500 μL) until the end point was reached (see FIGS. 11-13). The solutions were prepared as serial dilutions of Tb^3+, from 3.3 μM to 450 μM Tb^3+, and the fluorescence emission scan of each solution was acquired. Data points at the emission maximum of 544 nm were plotted against Tb^3+ concentration to calculate the final Kd. Data points indicate the average of at least three independent titrations. Error bars indicate standard error. The data were fit to equation (1) using a non-linear least squares fitting algorithm (KaleidaGraph version 3.6, Synergy Software), where Q fluorescence, Qo=fluorescence of the apopeptide, Qc=fluorescence of peptide-metal complex, Mt=total metal concentration, Kd=dissociation constant and Pt=total peptide concentration (10 μM). Dissociation constants in the presence of 2 mM Mg^2+ or 100 μM Ca^2+ were measured for pKID-PKA peptides to study the effect of these metals on Tb^3+-peptide complex formation.
Dissociation constants of the non-phosphorylated peptides were calculated by defining the maximum fluorescence of the non-phosphorylated peptide-Tb^3+ complex as equal to the maximum fluorescence of the phosphorylated peptide-Tb^3+ complex: Qc (non-phosphorylated peptide)=Qc (phosphorylated peptide), with Qc=the calculated fluorescence of the fully bonded phosphopeptide-Tb^3+ complex. Although the assumption of similar maximum fluorescence intensities of the Tb^3+ complexes of the non-phosphorylated and phosphorylated peptides may not be valid, it provides a measure of relative Tb^3+ fluorescence of the phosphorylated and non-phosphorylated peptides.

Protein Kinase A (PKA) [2] = molecular target: T1, Protein Kinase A (PKA) (Mus musculus, UniProt P05132); assay: Phosphorylation of pKID peptides by protein kinase A (HPLC, fluorescence, ESI-MS); type: biochemical; settings: 200 μM peptide, 2.5 units PKA, 35° C., 12 hrs
T1 construct: purchased New England Biolabs
Description: Kinase specificity for protein kinase-inducible domain peptides was examined by incubation of protein kinase A with pKID-PKA, pKID-PKC and pKID-Erk. Experiments were conducted with 2.4 mM ATP (3 μL of freshly prepared 20 mM ATP), PKA buffer (3 μL of 10× buffer), and peptide (200 μM) with water in 25 μL final reaction volume. After incubation at 35° C. for 5 min, PKA enzyme solution (1 μL, 2.5 units) was added to start the reaction. After 12-14 hrs at 35° C., the reaction mixture was analyzed by fluorescence, HPLC and ESI-MS. The kinase reaction mixtures were analyzed by fluorescence by diluting the reaction mixture with 1 mL of a solution containing 5 mM HEPES buffer (pH 7.8), 100 mM NaCl, and 50 μM Tb^3+, and the resulting solution analyzed by fluorescence. Fluorescence experiments were conducted with 10 nm slit widths and a 495 nm highpass filter on the emission monochromator. Fluorescence data (FIG. 7) represent the average of four independent trials. Error bars indicate standard error.

Protein Kinase A (PKA) [3] = molecular target: T1, Protein Kinase A (PKA); assay: Phosphorylation of pKID-PKA by protein kinase A in HeLa nuclear extract; type: biochemical; settings: HeLa nuclear extract with added PKA, 3 h incubation
[4] = tested on: endogenous kinase present within the HeLa extracts; assay: Phosphorylation of pKID-PKA in HeLa nuclear extract in the absence of added kinase; type: biochemical; settings: no added kinase
Description: Phosphorylation of pKID-PKA in HeLa nuclear extract in the absence of added kinase was also examined. Reaction mixtures were prepared as described previously to a final volume of 25 μL, but protein kinase A was not added. After addition of ATP and incubation for the indicated times, the reaction mixtures (25 μL, 500 μM peptide) were diluted with 200 μL of a solution containing […] buffer (pH 7.8), 100 mM NaCl and 100 μM Tb^3+ and analyzed by fluorescence as described previously. pKID-PKA was phosphorylated by endogenous kinase present within the HeLa extracts to approximately 10% conversion as determined by fluorescence and HPLC (see FIG. 5, right).

[5] = Ho^3+ competition experiment (reduction of Tb^3+ luminescence); type: binding; settings: 10 μM phosphorylated peptide, 10 μM Tb^3+, increasing Ho^3+
Description: Competition experiments were used to confirm site-specific lanthanide binding and to address whether pKID peptides are a general phosphorylation-dependent lanthanide-binding motif. In order to determine whether Tb^3+ binding is site-specific, competition experiments were performed with Ho^3+. Ho^3+ solutions were prepared from hydrates of the chloride salts in ultrapure water. The phosphorylated pKID-PKC peptide was tested for Ho^3+ binding by addition of aliquots of Ho^3+ to a solution containing 10 μM phosphorylated pKID-PKC and 10 μM Tb^3+. pKID-Tb^3+-Ho^3+ solutions were allowed to equilibrate for 2 minutes. Fluorescence experiments were conducted using a 495 nm highpass filter (model 495FG03-25 AM-53074; Andover Corporation, Andover, N.H.) on the emission monochromator and 8 nm slit widths.

Row | Substance | Kd ([1]; 10 μM peptide) [µM] | Kd ([1]; + 2 mM Mg^2+) [µM] | phosphorylation by PKA (result in words), determined by HPLC (Protein Kinase A (PKA) [2]) | other results
1 | Ac-DKNADGWIDAApSLK-NH2 (DKNADGWIDAASLK; HELM PEPTIDE1{[ac].D.K.N.A.D.G.W.I.D.A.A.[O=C([C@H](COP(=O)(O)O)N[*:1])[*:2]].L.K.[am]}$$$$V2.0; SMILES CC[C@H](C)[C@H](NC(=O)[C@H](Cc1c[nH]c2ccccc12)NC(=O)CNC(=O)[C@H](CC(=O)O)NC(=O)[C@H](C)NC(=O)[C@H](CC(N)=O)NC(=O)[C@H](CCCCN)NC(=O)[C@H](CC(=O)O)NC(C)=O)C(=O)N[C@@H](CC(=O)O)C(=O)N[C@@H](C)C(=O)N[C@@H](C)C(=O)N[C@@H](COP(=O)(O)O)C(=O)N[C@@H](CC(C)C)C(=O)N[C@@H](CCCCN)C(N)=O) [phosphorylated pKID-PKC] | 216 | – | – | –
2 | Ac-DKNADGWIDAApSPA-NH2 (DKNADGWIDAASPA; HELM PEPTIDE1{[ac].D.K.N.A.D.G.W.I.D.A.A.[O=C([C@H](COP(=O)(O)O)N[*:1])[*:2]].P.A.[am]}$$$$V2.0; SMILES CC[C@H](C)[C@H](NC(=O)[C@H](Cc1c[nH]c2ccccc12)NC(=O)CNC(=O)[C@H](CC(=O)O)NC(=O)[C@H](C)NC(=O)[C@H](CC(N)=O)NC(=O)[C@H](CCCCN)NC(=O)[C@H](CC(=O)O)NC(C)=O)C(=O)N[C@@H](CC(=O)O)C(=O)N[C@@H](C)C(=O)N[C@@H](C)C(=O)N[C@@H](COP(=O)(O)O)C(=O)N1CCC[C@H]1C(=O)N[C@@H](C)C(N)=O) [phosphorylated pKID-Erk] | 124 | – | – | –
3 | DKNADGWIDRASLA [non-phosphorylated pKID-PKA, Ac-DKNADGWIDRASLA-NH2, EF hand domain with Glu12 replaced by serine and a protein kinase A recognition domain] | > 5000 | > 5000 | – | Tb^3+ binding in the presence of Mg^2+ ([1]; 2 mM Mg^2+): not observed; conversion to phosphorylated peptide by PKA, determined by HPLC (Protein Kinase A (PKA) [2]): > 95%; phosphorylation conversion measured by HPLC (Protein Kinase A (PKA) [3]): 75%; phosphorylation conversion determined by fluorescence and HPLC [4]: approximately 10%
4 | DKNADGWIDAASPA [non-phosphorylated pKID-Erk, Ac-DKNADGWIDAASPA-NH2, EF hand domain with Glu12 replaced by serine and an Erk recognition domain] | > 3000 | – | no evidence of phosphorylation; also recorded: not phosphorylated | –
5 | DKNADGWIDAASLK [non-phosphorylated pKID-PKC, Ac-DKNADGWIDAASLK-NH2, EF hand domain with Glu12 replaced by serine and a protein kinase C recognition domain] | > 6000 | – | no evidence of phosphorylation; also recorded: not phosphorylated | Ho^3+ binding observed via Tb^3+ luminescence [5]: loss of Tb^3+ luminescence
6 | Ac-DKNADGWIDRApSLA-NH2 (DKNADGWIDRASLA; HELM PEPTIDE1{[ac].D.K.N.A.D.G.W.I.D.R.A.[O=C([C@H](COP(=O)(O)O)N[*:1])[*:2]].L.A.[am]}$$$$V2.0; SMILES CC[C@H](C)[C@H](NC(=O)[C@H](Cc1c[nH]c2ccccc12)NC(=O)CNC(=O)[C@H](CC(=O)O)NC(=O)[C@H](C)NC(=O)[C@H](CC(N)=O)NC(=O)[C@H](CCCCN)NC(=O)[C@H](CC(=O)O)NC(C)=O)C(=O)N[C@@H](CC(=O)O)C(=O)N[C@@H](CCCNC(=N)N)C(=O)N[C@@H](C)C(=O)N[C@@H](COP(=O)(O)O)C(=O)N[C@@H](CC(C)C)C(=O)N[C@@H](C)C(N)=O) [phosphorylated pKID-PKA] | 220 | 174 | – | change of dissociation constant of phosphopeptide-Tb^3+ complex in the presence of Ca^2+ ([1]; 100 μM Ca^2+): did not significantly change; Kd ([1]; + 100 μM Ca^2+): 228 µM

Source: US8003759B2, “Protein kinase-inducible domains” (University of Delaware, priority 2006, dated 2011)
